Experimental data: patent publication US20110275103A1, “EMISSION RATIOMETRIC REPORTERS OF MEMBRANE PDK1 ACTIVATION” (THE JOHNS HOPKINS UNIVERSITY, priority 2010, published 2011)
Entries after “also recorded” stand apart in the source; their conditions may differ.

Legend:
Assay type in all cases: cell-based
PDK1 [1] = assay: FRET emission ratio imaging of PDK1 activation reporters (PARE, Lyn-PARE, PARE-Kras) in NIH 3T3 cells; conditions: for emission ratio change of the non-raft-targeted reporter (PARE-Kras) / emission ratio change of the untargeted reporter (PARE) / response of the Lyn-PARE R472/474A mutant reporter / increase in the yellow-to-cyan emission ratio of the raft-targeted PDK1 activity reporter (Lyn-PARE): serum-starved NIH 3T3 cells
Source text: (§1) PARE was generated by sandwiching full-length PDK1 between a FRET pair, ECFP and Citrine. Lyn-PARE and PARE-Kras were generated by the addition of the N-terminal portion of the Lyn kinase gene (GCIKSKRKDKD; SEQ ID NO:6) at the 5′ end and a C(A)2X tag (C is cysteine, A is an aliphatic amino acid, and X is any amino acid) at the 3′ end (KKKKKSKTKCVIM; SEQ ID NO:7) of PARE, respectively. Lyn-PARE R472/474A was generated by site-directed mutagenesis. PTEN A4 (fused with a C-terminal fluorescent protein) was targeted to raft and non-raft regions of plasma membrane with the same set of targeting motifs. All of the constructs were generated in a modified version of the mammalian expression vector pcDNA 3.
(§2) Cells were plated on sterilized glass coverslips in 35 mm dishes and were grown to 40% confluency in medium at 37° C. with 5% CO2, then transfected with Lipofectamine 2000. In the case of NIH 3T3 and HeLa cells, the cells were serum-starved for 24 h. For imaging, cells were washed with Hanks' balanced salt solution (HBSS) and imaged in the dark at room temperature. Images were acquired on a Zeiss Axiovert 200M microscope with a cooled charge-coupled device camera, as previously described (8). Dual-emission ratio imaging was performed with a 420DF20 excitation filter, a 450DRLP dichroic mirror, and two emission filters. For CFP and YFP, 475DF40 and 535DF25, respectively, were used. Exposure times were 50-500 ms. Images were taken every 30 s. Imaging data were analyzed with Metafluor 6.2 software (Universal Imaging, Downingtown, Pa.). Fluorescence images were background-corrected by deducting the background (regions with no cells) from the emission intensities of CFP or YFP. Traces were normalized by taking the emission ratio before addition of drugs as 1.

PDK1 [2] = assay: FRET emission ratio imaging of Lyn-PARE in 3T3 L1 preadipocytes; conditions: pre-incubation with 50 μM C2-ceramide
Source text: as §1
Cells were plated on sterilized glass coverslips in 35 mm dishes and were grown to 40% confluency in medium at 37° C. with 5% CO2, then transfected with Lipofectamine 2000. In the case of NIH 3T3 and HeLa cells, the cells were serum-starved for 24 h. For imaging, cells were washed with Hanks' balanced salt solution (HBSS) and imaged in the dark at room temperature. […] Imaging data were analyzed with Metafluor 6.2 software (Universal Imaging, Downingtown, Pa.). Fluorescence images were background-corrected by deducting the background (regions with no cells) from the emission intensities of CFP or YFP. […]

Akt [3] = assay: Membrane translocation of YFP-tagged Akt PH domain in NIH 3T3 cells
Procedure: as §2

Akt [4] = assay: Membrane translocation of Akt PH domain in 3T3 L1 preadipocytes; conditions: pre-incubation with 50 μM C2-ceramide
Procedure: as §2

Akt [5] = assay: FRET-based Akt activity reporter (AktAR) imaging in NIH 3T3 cells; conditions: pre-incubation with 50 μM C2-ceramide for 60 min
Procedure: as §2

Akt [6] = assay: FRET-based Akt activity reporter (AktAR) imaging in 3T3 L1 preadipocytes; conditions: pre-incubation with 50 μM C2-ceramide
Procedure: as §2

PTEN = assay: Sucrose density gradient fractionation of crude plasma membranes and anti-PTEN Western blot, 3T3-L1 adipocytes
Procedure: Cells were washed with ice-cold PBS and then lysed in RIPA lysis buffer containing protease inhibitor cocktail (Roche), 1 mM PMSF, 1 mM NaVO4, 1 mM NaF and 25 nM calyculin A. Total cell lysates were incubated on ice for 30 min, then centrifuged at 4° C. for 20 min. Total protein was separated with 7.5% SDS-PAGE and transferred to nitrocellulose membranes. The membranes were blocked with TBS containing 0.05% Tween-20 and 1% bovine serum albumin, then incubated with primary antibodies overnight at 4° C. After incubation with the appropriate horseradish peroxidase-conjugated secondary antibodies, the bands were visualized by enhanced chemiluminescence. The intensity of the bands was quantified with ImageJ software.
Cells were rinsed twice with ice-cold PBS and harvested into 10 mM Tris (pH 7.4) with 150 mM NaCl, 5 mM EDTA, 2 mM PMSF, 2 mM NaVO4, 2 mM NaF, and 50 nM calyculin A, with protease inhibitor cocktail. The cells then were subjected to mechanical disruption with 15 strokes of a homogenizer. Homogenates were centrifuged at 2,300×g for 5 min at 4° C., and the supernatant was centrifuged at 18,000×g for 50 min at 4° C. (32). The resulting membrane pellets were resuspended in 10 mM Tris (pH 7.4) with 150 mM NaCl, 5 mM EDTA, 2 mM PMSF, 2 mM NaVO4, 2 mM NaF and 50 nM calyculinA A, with protease inhibitor cocktail and 1% Triton X-100, for sucrose density gradient fractionation. […]

3T3 L1 adipocytes = assay: Glucose uptake assay ([14C]2-deoxyglucose) in 3T3 L1 adipocytes; conditions: pre-incubation with 50 μM C2-ceramide for 60 min, 100 nM insulin, n=3
Procedure: 3T3-L1 preadipocytes were grown to confluency in 10% calf serum/DMEM and stimulated with induction media (DMEM containing 10% fetal bovine serum, 1 μg/ml insulin, 1 μM dexamethasone, and 0.5 mM 3-isobutyl-1-methylxanthine) at 2 days post-confluency.
The medium was changed to insulin medium (1 μg/ml) 2 days after induction. Two days later, the medium was replaced with 10% fetal bovine serum/DMEM and then changed every 2 days. Full differentiation was achieved by 8 days after induction.
Adipocytes were incubated in Krebs-Ringer bicarbonate buffer supplemented with 30 mM HEPES, pH 7.4, with 0.5% BSA (KRBH/BSA) and 2.5 mM glucose for 3 h. The cells were washed once with PBS and incubated in BSA/KRH (25 mM HEPES-NaOH, pH 7.4, with 120 mM NaCl, 5 mM KCl, 1.2 mM MgSO4, 1.3 mM CaCl2, and 1.3 mM KH2PO4) without glucose for 15 min. The cells were then incubated with 100 nM insulin for 15 min. The assay was initiated by the addition of ^[14C]2-deoxyglucose (0.4 μCi/sample) and 5 mM glucose and terminated after 15 min by washing the cells three times with ice-cold PBS. Cells were solubilized in 1% Triton-100, and cell-associated radioactivity was determined by scintillation counting.

PDK1 [7] = assay: FRET emission ratio imaging of PDK1 activation reporters in HeLa cells; conditions: serum-starved HeLa cells; 100 ng/ml EGF
Source text: as §1, §2

[8] = NIH 3T3 cells, pre-incubation with 50 μM C2-ceramide for 60 min

Molecule: CCCCCCCCCCCCC/C=C/[C@@H](O)[C@H](CO)NC(C)=O [C2-ceramide]
- effect on response of Lyn-PARE (PDK1 [1]; [8]): abolished
- effect on response of Lyn-PARE (PDK1 [2]): abolished
- effect on membrane translocation of Akt PH domain (Akt [3]; [8]): abolished
- effect on membrane translocation of Akt PH domain (Akt [4]): abolished
- effect on response of AktAR (Akt [5]): abolished
- effect on response of AktAR (Akt [6]): abolished
- increase in the amount of PTEN found in raft fractions (PTEN; pre-incubation with 50 μM C2-ceramide, n=3): 8.8±2.1 fold
- level of PTEN in non-raft regions of adipocyte membranes (PTEN; pre-incubation with C2-ceramide): without changing the level of PTEN
- effect on insulin-induced glucose uptake (3T3 L1 adipocytes): blocked insulin-induced glucose uptake; also recorded: inhibited insulin-induced glucose uptake

Molecule: OO [H2O2]
- effect on Lyn-PARE response to PDGF suppressed by targeted PTEN A4 (PDK1 [1]; NIH 3T3 cells, 50 mM H2O2): restored
- effect on Akt PH membrane translocation suppressed by Lyn-PTEN A4 (Akt [3]; 50 mM H2O2): restored the membrane translocation
- effect on inhibition of Akt-PH translocation by non-raft-targeted PTEN A4 (PTEN A4-Kras) (Akt [3]; H2O2 treatment): reversed

Molecule: EGF: epidermal growth factor, purchased from Sigma-Aldrich (NSDSECPLSHDGYCLHDGVCMYIEALDKYACNCVVGYIGERCQYRDLKWWELR; UniProt P01133 971-1023, looked up)
- emission ratio change of the non-raft-targeted reporter (PARE-Kras) (PDK1 [7]): but not PARE (n=4) or PARE-Kras
- emission ratio change of the raft-targeted reporter (Lyn-PARE) (PDK1 [7]): induced an emission ratio increase
- emission ratio change of the untargeted reporter (PARE) (PDK1 [7]): but not PARE

Molecule: PDGF
- emission ratio change of the non-raft-targeted reporter (PARE-Kras) (PDK1 [1]; 50 ng/ml PDGF): no emission ratio change
- emission ratio change of the untargeted reporter (PARE) (PDK1 [1]; 50 ng/ml PDGF): no emission ratio change
- response of the Lyn-PARE R472/474A mutant reporter (PDK1 [1]; 50 ng/ml PDGF): lack of response
- increase in the yellow-to-cyan emission ratio of the raft-targeted PDK1 activity reporter (Lyn-PARE) (PDK1 [1]; 50 ng/ml PDGF, n=7): 19±4%

Molecule: pervanadate [PV]
- emission ratio change of the non-raft-targeted reporter (PARE-Kras) (PDK1 [1]; 100 μM PV): Only the raft-targeted PDK1 activity reporter showed an increase
- emission ratio change of the untargeted reporter (PARE) (PDK1 [1]; 100 μM PV): no emission ratio change
- increase in the yellow-to-cyan emission ratio of the raft-targeted PDK1 activity reporter (Lyn-PARE) (PDK1 [1]; 100 μM PV, n=5): 20.7±3.3%
- response of the Lyn-PARE R472/474A mutant reporter (PDK1 [1]; PV): lack of response
